Measured values taken from PubChem BioAssay AID248 (DTP/NCI, 2004).
Where “and” joins values, the source holds several entries; their conditions need not be identical. Equal values may be shown once. Toxic doses and inconclusive results are not listed. Cut-off read from the data, not from the text of the source: active = T/C of 150% or more; inactive = T/C below 125%.

Test system: L1210 leukemia ip in BDF1 mice, survival T/C
Assay: NCI In Vivo Anticancer Drug Screen. Data for tumor model L1210 Leukemia (intraperitoneal) in B6D2F1 (BDF1) mice
Conditions: endpoint: mean survival time, higher = longer survival
Summary of the method: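 Value reflects the ratio of survival in compound-treated mice to survival in vehicle-treated controls, with both groups carrying the same transplanted tumor.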

[1] = dose: 100.0 mg/kg/injection, schedule: Q04DX003 (ip), vehicle: saline
[2] = dose: 200.0 mg/kg/injection, schedule: Q04DX003 (ip), vehicle: saline
[3] = dose: 400.0 mg/kg/injection, schedule: Q04DX003 (ip), vehicle: saline
[4] = dose: 100.0 mg/kg/injection, schedule: Q04DX003 (ip), vehicle: saline with Tween-80

Measured: T/C

O=COCC1CCC(COC=O)CC1 (configuration not stated)
inactive: dose: 222.0 mg/kg/injection, schedule: Q01DX Z (ip), vehicle: methylcellulose (MC) 94 % of control | dose: 333.0 mg/kg/injection, schedule: Q01DX Z (ip), vehicle: methylcellulose (MC) 94 % of control | dose: 500.0 mg/kg/injection, schedule: Q01DX Z (ip), vehicle: methylcellulose (MC) 105 % of control

Cc1ccc([N+](=O)[O-])cc1NC(=O)Nc1cccc2ccc(O)cc12
inactive: dose: 100.0 mg/kg/injection, schedule: Q01DX009 (ip), vehicle: Klucel (hydroxypropylcellulose) (HPC) 95 % of control | dose: 200.0 mg/kg/injection, schedule: Q01DX009 (ip), vehicle: Klucel (hydroxypropylcellulose) (HPC) 93 % of control | dose: 400.0 mg/kg/injection, schedule: Q01DX009 (ip), vehicle: Klucel (hydroxypropylcellulose) (HPC) 104 % of control

BrC1C2C=CCC1CC2 (configuration not stated)
inactive: dose: 100.0 mg/kg/injection, schedule: Q01DX009 (ip), vehicle: saline 91 % of control | [1] 96 % of control | dose: 200.0 mg/kg/injection, schedule: Q01DX009 (ip), vehicle: saline 97 % of control | [2] 96 % of control | dose: 400.0 mg/kg/injection, schedule: Q01DX009 (ip), vehicle: saline 94 % of control | [3] 94 % of control

CC1CC/C(=C\c2ccccc2)C(=O)/C1=C/c1ccccc1 (configuration not stated)
inactive: dose: 25.0 mg/kg/injection, schedule: Q01DX009 (ip), vehicle: DMSO 92 % of control | dose: 50.0 mg/kg/injection, schedule: Q01DX009 (ip), vehicle: DMSO 94 % of control | dose: 100.0 mg/kg/injection, schedule: Q01DX009 (ip), vehicle: DMSO 94 % of control and 91 % of control | dose: 100.0 mg/kg/injection, schedule: Q04DX003 (ip), vehicle: DMSO 105 % of control | dose: 200.0 mg/kg/injection, schedule: Q01DX009 (ip), vehicle: DMSO 102 % of control | dose: 200.0 mg/kg/injection, schedule: Q04DX003 (ip), vehicle: DMSO 100 % of control | dose: 400.0 mg/kg/injection, schedule: Q04DX003 (ip), vehicle: DMSO 95 % of control

O=C(N/N=C/C=C/c1ccccc1)[C@H](O)[C@@H](O)C(=O)N/N=C/C=C/c1ccccc1
inactive: dose: 100.0 mg/kg/injection, schedule: Q01DX001 (ip), vehicle: saline 92 % of control | dose: 100.0 mg/kg/injection, schedule: Q01DX009 (ip), vehicle: acetone 90 % of control | [1] 88 % of control | dose: 200.0 mg/kg/injection, schedule: Q01DX001 (ip), vehicle: saline 93 % of control | [2] 88 % of control | dose: 400.0 mg/kg/injection, schedule: Q01DX001 (ip), vehicle: saline 93 % of control | dose: 400.0 mg/kg/injection, schedule: Q01DX009 (ip), vehicle: acetone 92 % of control | [3] 97 % of control

CCCC1OC1CCC (configuration not stated)
inactive: [4] 109 % of control | dose: 200.0 mg/kg/injection, schedule: Q04DX003 (ip), vehicle: saline with Tween-80 97 % of control | dose: 400.0 mg/kg/injection, schedule: Q04DX003 (ip), vehicle: saline with Tween-80 91 % of control

O=C(Nc1ccccc1)C1C2CC3OC(=O)C1C3C2 (configuration not stated)
inactive: [1] 104 % of control and 102 % of control | [2] 95 % of control and 92 % of control | [3] 98 % of control and 104 % of control

CCOc1ccc(-n2c(O)c(N=Nc3ccc(Cl)cc3)c(=O)n(-c3ccc(OC)cc3)c2=S)cc1
inactive: dose: 100.0 mg/kg/injection, schedule: Q01DX001 (ip), vehicle: Klucel (hydroxypropylcellulose) (HPC) 96 % of control | dose: 200.0 mg/kg/injection, schedule: Q01DX001 (ip), vehicle: Klucel (hydroxypropylcellulose) (HPC) 98 % of control | dose: 400.0 mg/kg/injection, schedule: Q01DX001 (ip), vehicle: Klucel (hydroxypropylcellulose) (HPC) 96 % of control

CCNC(=S)Nc1ccc(Cl)cc1
inactive: dose: 25.0 mg/kg/injection, schedule: Q01DX009 (ip), vehicle: saline with Tween-80 93 % of control | dose: 50.0 mg/kg/injection, schedule: Q01DX009 (ip), vehicle: saline with Tween-80 95 % of control | dose: 100.0 mg/kg/injection, schedule: Q01DX009 (ip), vehicle: saline with Tween-80 97 % of control | [4] 104 % of control

CCc1cc(C(C)=O)c(CC)s1
inactive: dose: 100.0 mg/kg/injection, schedule: Q01DX009 (sc), vehicle: olive oil, sesame oil, peanut oil 94 % of control | dose: 100.0 mg/kg/injection, schedule: Q04DX003 (sc), vehicle: olive oil, sesame oil, peanut oil 104 % of control | dose: 200.0 mg/kg/injection, schedule: Q01DX009 (sc), vehicle: olive oil, sesame oil, peanut oil 97 % of control | dose: 200.0 mg/kg/injection, schedule: Q04DX003 (sc), vehicle: olive oil, sesame oil, peanut oil 100 % of control | dose: 400.0 mg/kg/injection, schedule: Q01DX009 (sc), vehicle: olive oil, sesame oil, peanut oil 104 % of control | dose: 400.0 mg/kg/injection, schedule: Q04DX003 (sc), vehicle: olive oil, sesame oil, peanut oil 109 % of control

CC(=O)c1ccc(OC(=O)Oc2ccc(C(C)=O)cc2)cc1
inactive: dose: 100.0 mg/kg/injection, schedule: Q01DX001 (ip), vehicle: carboxymethylcellulose (CMC) 93 % of control | dose: 200.0 mg/kg/injection, schedule: Q01DX001 (ip), vehicle: carboxymethylcellulose (CMC) 101 % of control | dose: 400.0 mg/kg/injection, schedule: Q01DX001 (ip), vehicle: carboxymethylcellulose (CMC) 93 % of control

CC(C)c1cc(CN(C)C)cc(C(C)C)c1O
inactive: dose: 100.0 mg/kg/injection, schedule: Q04DX003 (ip), vehicle: Klucel (hydroxypropylcellulose) (HPC) 95 % of control | dose: 200.0 mg/kg/injection, schedule: Q04DX003 (ip), vehicle: Klucel (hydroxypropylcellulose) (HPC) 102 % of control

O=[N+]([O-])c1ccc(S(=O)Cc2ccccc2)c2c1no[n+]2[O-] (configuration not stated)
inactive: dose: 25.0 mg/kg/injection, schedule: Q04DX003 (ip), vehicle: saline with Tween-80 100 % of control
